Converted amounts (≈) assume the structure as drawn.
Tests used:
[1] = cited from earlier work; for Kow: octanol-water coefficient; for log10(Kow): organic solvents used for extraction of HA-stabilized CNTs (FIG. 9)
[2] = water solubility of the HOC; cited from earlier work
[3] = Sorption kinetics of HOCs onto Mag-PCMAs from contaminated water; assay type: physicochemical; conditions: 20 mg/L HA; initial diuron 34.3 μmol/L
Protocol: Sorption kinetics of HOCs onto Mag-PCMAs from contaminated water. The HOC sorption kinetics onto Mag-PCMAs were determined by batch experiments. Aliquots (50 mg) of Mag-PCMAs were mixed in 10 ml glass tubes with 10.0 ml of an aqueous solution of each HOC. […] The caps of the tubes were lined with PTFE. The tubes were shaken at 60 rpm at 22±2° C. continuously. At the end of 5, 10, 20, 30, 45, 60, 90, 120, 180, 200, 360, 720, and 1440 minutes, one tube was taken out. A magnet was then used to separate the Mag-PCMAs from the aqueous phase. […] 1.0 ml of the supernatant was taken for HOC analysis on a high performance liquid chromatography (HPLC). The amount of HOC sorbed was calculated as the difference between the initial and final HOC mass in aqueous phase. To order to investigate the effect of the presence of HA on HOC sorption kinetics, diuron sorption kinetics were determined in the presence of 20 mg/L HA (organic carbon content), an environmental relevant HA concentration.^29 The initial diuron concentration was 34.3 μmol/L.

[4] = benzalkonium chloride concentration of 6.0 g/L; cited from earlier work

| SMILES | Kow [1] | Solubility [2] [µg/mL] | log10(Kow) [1] | further results |
| --- | --- | --- | --- | --- |
| CCNc1nc(Cl)nc(NC(C)C)n1 [Atrazine, 2-chloro-4-ethylamino-6-isopropylamino-1,3,5-triazine] | 416 | – | – | – |
| c1ccc(-c2ccccc2)cc1 [Biphenyl, biphenyl] | 7079 | 44 (≈ 285 µM) | – | – |
| CN(C)C(=O)Nc1ccc(Cl)c(Cl)c1 [Diuron, 3-(3,4-dichlorofenyl)-1,1-dimethylurea] | 660 | 180 (≈ 772 µM) | – | effect of presence of HA on sorption kinetics [3]: no significant effect; solubility of diuron relative to that in absence of the surfactant [4]: about 20 times |
| c1ccc2ccccc2c1 [Naphthalene, naphthalene] | – | 225 (≈ 1760 µM) | – | – |
| ClC=C(Cl)Cl [TCE, trichloroethene] | – | – | 2.33 | – |
| CCCCCC [hexane] | – | – | 4.00 | – |
| CCCCCCCC [octane] | – | – | 5.18 | – |

Source: patent publication US20120037840A1, “USE OF MAGNETIC NANOPARTICLES TO REMOVE ENVIRONMENTAL CONTAMINANTS” (priority 2008, published 2012)
